For 13 compounds, TGI and GI50 results are on record in PubChem BioAssay (NCI).

Some test systems named below: ACHN renal; BT-549 breast; COLO 205 colon; HCT-116 colon; HCT-15 colon; K-562 leukemia; NCI-H460 lung; T-47D breast; HCC-2998 colon; SK-OV-3 ovarian.
What all share (assay): NCI tumour cell line growth inhibition, 48 h

Where “and” joins values, the source holds several entries; their conditions need not be identical. Equal values may be shown once.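 Interpolation was linear, between the two tested concentrations surrounding the appropriate level; five concentrations were tested over 48 hours in 96-well plates. Abbreviation: GI50, concentration required for 50% inhibition of growth. TGI denotes the concentration required for complete inhibition of growth.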

As for `CCOC(=O)c1c(NC(=S)NCc2ccccc2)sc2c1CCN(C)C2`, the TGI in the test on ACHN renal was above 100 µM; in the test on BT-549 breast, above 100 µM; in the test with COLO 205 colon it was above 100 µM; in the test with HCT-116 colon it was above 100 µM; with HCT-15 colon, above 100 µM; with K-562 leukemia, 46.1 µM. The TGI in the test with NCI-H460 lung and in the test with T-47D breast was above 100 µM throughout.

For the compound `CC(C)(C)CC(C)(C)Cc1ccc(OCCOCC[N+](C)(C)Cc2ccccc2)cc1`, the GI50 in the test on ACHN renal was 11.8 µM; in the test on HCC-2998 colon, 1.58 µM; with HCT-15 colon, 14.4 µM; in the test with K-562 leukemia, 0.966 µM; in the test with NCI-H460 lung, 1.8 µM; with SK-OV-3 ovarian it was 2.71 µM. Also, in the test on T-47D breast, the GI50 is 1.41 µM. The TGI with ACHN renal turned out to be 27 µM; in the test on HCC-2998 colon it was 3.02 µM; in the test with HCT-15 colon, 33.5 µM; with K-562 leukemia, 3.57 µM; in the test on NCI-H460 lung, 3.45 µM; in the test with SK-OV-3 ovarian it was 12.4 µM. For the same compound, the TGI in the test on T-47D breast is 3.94 µM.

As to `CN1CCN(c2ccc3nc(-c4ccc(OCCCN5C(=O)c6cccc7cccc(c67)C5=O)cc4)[nH]c3c2)CC1`, the GI50 with ACHN renal is 5.34 µM; in the test on BT-549 breast it was 2.66 µM; in the test on COLO 205 colon it was 4.53 µM; in the test on HCC-2998 colon it was 20.6 µM; in the test with K-562 leukemia, 0.889 µM; in the test on SK-OV-3 ovarian it was 10.8 µM. In the test on T-47D breast, the GI50 is 4.8 µM. The TGI in the test with ACHN renal was 11.2 µM; with BT-549 breast, 6.13 µM; in the test on COLO 205 colon it was above 100 µM; in the test with HCC-2998 colon, 52.6 µM; in the test with K-562 leukemia, 4.54 µM; in the test with SK-OV-3 ovarian it was 37.5 µM. Moreover, the TGI in the test with T-47D breast stood at 34.3 µM.

For `COc1cc2c(cc1-c1c(C)noc1C)ncc1nc(C3CCCCC3)n(C3CCC(OC(F)F)CC3)c12` (stereo not drawn), the figures for the GI50 with K-562 leukemia and in the test with NCI-H460 lung were 1.75 µM and 2.53 µM, respectively. For the same compound, the TGI with K-562 leukemia and with NCI-H460 lung was above 100 µM in each case.

Regarding `COc1cccc2c1C(=O)c1c(O)c3c(c(O)c1C2=O)C[C@@](O)(C(C)=O)C[C@@H]3OC1CC(N)C(O)C(C)O1` (stereo partly drawn), the GI50 in the test with ACHN renal is below 0.011 µM; in the test on BT-549 breast, 0.0482 µM; in the test on HCT-116 colon it was below 0.0135 µM; with K-562 leukemia it was below 0.01 µM; in the test with SK-OV-3 ovarian it was 0.0189 µM; in the test with T-47D breast, below 0.0176 µM. Further, the values for the TGI with COLO 205 colon and in the test with HCT-15 colon were 1.28 µM [middle of 6 runs] and 8.07 µM [middle of 6 runs], respectively.

In the case of `NC(=O)c1cc2ccccc2c(N=Nc2ccccc2)c1O`, the TGI in the test with BT-549 breast, in the test on COLO 205 colon, with HCT-116 colon, with HCT-15 colon, with K-562 leukemia and with SK-OV-3 ovarian was above 100 µM throughout. Also, the TGI with T-47D breast is above 100 µM.

Consider `CCP(=O)(CC)C(Cl)(Cl)C(=O)NC`, for which the TGI in the test with ACHN renal, with COLO 205 colon, in the test on HCC-2998 colon, in the test on HCT-116 colon, in the test with HCT-15 colon and in the test on K-562 leukemia was above 100 µM in each case. For the same compound, the TGI in the test on NCI-H460 lung, in the test with SK-OV-3 ovarian and in the test with T-47D breast was above 100 µM in each case.

Turning to `N#Cc1ccc(Nc2nc3nc[nH]c3c(=O)[nH]2)cc1`, the TGI in the test with ACHN renal, in the test with BT-549 breast, with COLO 205 colon, in the test on HCC-2998 colon, in the test with HCT-116 colon and in the test on HCT-15 colon was above 100 µM in each case. In addition, the TGI in the test with NCI-H460 lung, in the test on SK-OV-3 ovarian and in the test on T-47D breast was above 100 µM in each case.

With `CC(=O)OC1CC2(O)C(CCC3(C)C(c4ccc(=O)oc4)CCC32O)C2(C)CCC(O)C=C12` (stereo not drawn), the TGI with COLO 205 colon was 0.168 µM and 0.139 µM; in the test on HCC-2998 colon, 0.357 µM and 0.195 µM; in the test with HCT-116 colon, 0.104 µM and 0.0477 µM; in the test on HCT-15 colon, 0.209 µM and 0.147 µM; in the test on K-562 leukemia it was 0.256 µM and 0.178 µM; in the test with NCI-H460 lung, 0.0271 µM and 0.0388 µM. For the same compound, in the test with SK-OV-3 ovarian, the TGI was 0.104 µM and 0.117 µM. Further, the GI50 in the test on HCC-2998 colon is 0.0437 µM; with HCT-116 colon, 0.00498 µM; in the test with HCT-15 colon, 0.0375 µM; in the test on K-562 leukemia, 0.0128 µM; with NCI-H460 lung, 0.0375 µM; in the test on SK-OV-3 ovarian, 0.0435 µM.

For `O=c1c(-c2ccccc2)c[nH]c2cc([N+](=O)[O-])c(/C(Cl)=C/c3ccccc3)cc12`, the TGI in the test with COLO 205 colon is above 38.2 µM; with HCT-116 colon, 29.9 µM; with HCT-15 colon, above 47.1 µM; in the test with K-562 leukemia, 20.7 µM; in the test with NCI-H460 lung, 44.8 µM; in the test on SK-OV-3 ovarian, above 100 µM.

Take `Cc1c2cc[n+](C)cc2c(C)c2c1[nH]c1ccc(O)cc12`: the TGI in the test on BT-549 breast is 71.1 µM; with COLO 205 colon it was above 91.9 µM; with HCC-2998 colon, 98.7 µM; with HCT-116 colon, above 91.6 µM; with HCT-15 colon, above 100 µM; in the test on K-562 leukemia, above 82.1 µM. Also, the TGI was 24.7 µM in the test on NCI-H460 lung, above 100 µM in the test on SK-OV-3 ovarian and 11 µM in the test on T-47D breast.

Regarding `O=C(CCN1CCCC1)Nc1ccc2c(NCCCCc3ccccc3)c3ccccc3nc2c1`, the GI50 with ACHN renal was 1.32 µM; with COLO 205 colon it was 0.453 µM; with HCC-2998 colon it was 0.815 µM; with HCT-15 colon, 1.62 µM; with NCI-H460 lung it was 0.53 µM. For the same compound, the TGI stood at 2.59 µM with ACHN renal; 1.87 µM in the test on COLO 205 colon; 2.14 µM with HCC-2998 colon; 3.1 µM in the test on HCT-15 colon; 1.76 µM in the test with NCI-H460 lung.

Turning to `Cc1c2cc[n+](C)cc2c(COC2OC(CO)C(O)C2O)c2c3ccccc3n(C)c12` (stereo not drawn), the TGI with COLO 205 colon, in the test on HCC-2998 colon, in the test with HCT-116 colon, with HCT-15 colon, in the test on K-562 leukemia and in the test with NCI-H460 lung was above 100 µM in each case. The TGI in the test with SK-OV-3 ovarian was 99.1 µM.
